Measurements published in patent publication US20120082658A1, “Methods for the Treatment of Allergic Diseases” (VentiRx Pharmaceuticals, Inc., priority 2010, published 2012).

Experiments:
Format in all cases: cell-based
Settings in all cases: concentration up to 25 uM
TLR6 = target: T1, TLR6 (Homo sapiens, UniProt Q9Y2C9); experiment: HEK293 cells transfected with human TLR6, NF-κB driven reporter
T1 construct: expressed in transfected cells; host or cells: HEK293
T1 sequence (Q9Y2C9 32-796): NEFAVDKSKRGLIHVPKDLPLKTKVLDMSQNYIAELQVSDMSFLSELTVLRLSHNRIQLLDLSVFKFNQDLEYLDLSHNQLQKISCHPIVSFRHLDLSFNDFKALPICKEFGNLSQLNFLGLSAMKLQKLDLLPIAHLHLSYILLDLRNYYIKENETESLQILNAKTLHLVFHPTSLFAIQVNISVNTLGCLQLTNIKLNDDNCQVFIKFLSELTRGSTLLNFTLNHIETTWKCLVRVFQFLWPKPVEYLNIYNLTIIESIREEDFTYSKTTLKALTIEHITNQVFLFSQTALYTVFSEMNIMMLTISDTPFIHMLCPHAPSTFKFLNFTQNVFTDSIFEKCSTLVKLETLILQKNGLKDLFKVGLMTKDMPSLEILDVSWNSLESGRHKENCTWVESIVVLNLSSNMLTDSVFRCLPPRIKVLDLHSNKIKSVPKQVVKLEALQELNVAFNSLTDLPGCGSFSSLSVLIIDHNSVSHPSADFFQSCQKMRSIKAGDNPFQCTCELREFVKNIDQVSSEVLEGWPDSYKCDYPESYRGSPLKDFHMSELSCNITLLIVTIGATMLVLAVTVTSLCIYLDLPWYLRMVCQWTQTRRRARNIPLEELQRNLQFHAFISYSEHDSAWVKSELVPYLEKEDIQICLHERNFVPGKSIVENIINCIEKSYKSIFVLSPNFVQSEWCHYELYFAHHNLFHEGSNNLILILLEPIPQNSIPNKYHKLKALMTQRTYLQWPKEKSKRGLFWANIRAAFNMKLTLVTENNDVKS
Method: (§1) FIG. 8 is two graphs depicting the potency and selectivity of VTX-378 for TLR8. The half-maximal effective concentration (EC50) for VTX-378 activation of TLR8 and TLR7 was assessed in peripheral blood mononuclear cells (PBMCs) by the amount of secreted TNFα (A) and by the activity of NF-κB (B) from 15 healthy donors and also in HEK293 cells transfected with various human TLRs.
(§2) Preclinical studies were performed with VTX-378, the active pharmaceutical ingredient in VTX-1463. The specificity of VTX-378 for human TLR8 relative to other TLRs was assessed in transfected Human Embryonic Kidney 293 (HEK293) cells engineered to express individual TLRs (2-9) via transfection, and assessed using an NF-κB driven reporter system. […] The pharmacologic effects of VTX-378 were characterized in vitro using isolated human peripheral blood mononuclear cells (PBMCs).

TLR9 = target: T2, TLR9 (Homo sapiens, UniProt Q9NR96); experiment: HEK293 cells transfected with human TLR9, NF-κB driven reporter
T2 construct: expressed in transfected cells; host or cells: HEK293
T2 sequence (Q9NR96 26-1032): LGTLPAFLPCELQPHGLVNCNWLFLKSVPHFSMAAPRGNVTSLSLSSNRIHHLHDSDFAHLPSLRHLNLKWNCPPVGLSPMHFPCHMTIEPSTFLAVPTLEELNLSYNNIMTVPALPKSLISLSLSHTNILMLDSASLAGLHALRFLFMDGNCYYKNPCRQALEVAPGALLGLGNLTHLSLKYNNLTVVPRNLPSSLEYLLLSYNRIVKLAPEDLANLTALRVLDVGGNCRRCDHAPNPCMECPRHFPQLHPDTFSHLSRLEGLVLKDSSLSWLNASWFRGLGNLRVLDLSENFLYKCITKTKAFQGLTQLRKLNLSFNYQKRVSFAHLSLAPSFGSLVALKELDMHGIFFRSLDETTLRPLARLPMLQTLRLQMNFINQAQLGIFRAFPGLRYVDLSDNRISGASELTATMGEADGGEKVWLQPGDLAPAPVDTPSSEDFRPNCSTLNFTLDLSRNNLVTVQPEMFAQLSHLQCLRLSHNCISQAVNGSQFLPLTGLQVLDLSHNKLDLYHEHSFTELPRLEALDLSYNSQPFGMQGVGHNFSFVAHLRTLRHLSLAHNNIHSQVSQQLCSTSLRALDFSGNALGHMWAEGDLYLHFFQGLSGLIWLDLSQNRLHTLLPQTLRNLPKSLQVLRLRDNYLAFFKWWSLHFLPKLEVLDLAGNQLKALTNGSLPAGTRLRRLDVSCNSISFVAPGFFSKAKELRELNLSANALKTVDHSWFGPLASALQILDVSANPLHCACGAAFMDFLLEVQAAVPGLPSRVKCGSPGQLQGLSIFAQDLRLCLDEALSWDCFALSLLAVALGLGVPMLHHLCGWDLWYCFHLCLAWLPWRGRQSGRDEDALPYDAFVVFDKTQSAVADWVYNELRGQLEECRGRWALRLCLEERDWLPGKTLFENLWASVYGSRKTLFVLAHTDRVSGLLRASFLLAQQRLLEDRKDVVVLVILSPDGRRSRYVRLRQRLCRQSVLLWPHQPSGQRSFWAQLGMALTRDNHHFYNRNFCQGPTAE
Method: as §1, §2

TLR2 = target: T3, TLR2 (Homo sapiens, UniProt O60603); experiment: HEK293 cells transfected with human TLR2, NF-κB driven reporter
T3 construct: expressed in transfected cells; host or cells: HEK293
Method: as §1, §2

T3 sequence (O60603 21-784): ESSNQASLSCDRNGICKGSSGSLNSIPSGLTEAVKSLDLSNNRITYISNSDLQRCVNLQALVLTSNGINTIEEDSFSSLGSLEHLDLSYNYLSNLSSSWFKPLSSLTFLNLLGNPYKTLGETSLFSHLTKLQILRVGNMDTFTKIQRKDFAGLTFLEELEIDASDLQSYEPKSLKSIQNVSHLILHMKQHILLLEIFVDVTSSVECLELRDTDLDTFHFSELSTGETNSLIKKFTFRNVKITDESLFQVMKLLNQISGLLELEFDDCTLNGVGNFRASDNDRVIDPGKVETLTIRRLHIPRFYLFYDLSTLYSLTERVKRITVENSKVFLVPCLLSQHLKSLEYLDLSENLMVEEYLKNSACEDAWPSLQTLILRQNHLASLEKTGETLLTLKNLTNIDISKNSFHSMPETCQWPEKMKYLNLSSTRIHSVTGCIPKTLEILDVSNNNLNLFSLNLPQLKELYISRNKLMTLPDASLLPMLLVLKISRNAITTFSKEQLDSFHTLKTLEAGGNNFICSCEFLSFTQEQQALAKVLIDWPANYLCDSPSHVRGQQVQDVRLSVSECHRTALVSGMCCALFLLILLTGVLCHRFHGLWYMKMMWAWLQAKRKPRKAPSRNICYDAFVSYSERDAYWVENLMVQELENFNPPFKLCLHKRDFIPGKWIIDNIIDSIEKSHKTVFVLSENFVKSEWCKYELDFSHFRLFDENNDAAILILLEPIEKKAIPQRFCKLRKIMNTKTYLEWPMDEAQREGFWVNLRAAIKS

CCCN(CCC)C(=O)C1=Cc2ccc(-c3ccc(C(=O)N4CCCC4)cc3)cc2N=C(N)C1 [VTX-378]
no detectable activity: activity on TLR6 (TLR6) | activity on TLR9 (TLR9) | activity on TLR2 (TLR2)
